In patent US20240180485A1, “METHOD AND DEVICE FOR INDUCING HYPOMETABOLIC STATE IN SUBJECT WITH DISEASE” (UNIVERSITY OF TSUKUBA, priority 2021, published 2024):

Key:
[1] = test system: hM3Dq-mCherry-expressing neurons; assay: Current-clamp recording of hypothalamus slices with bath-applied CNO; format: cell-based, mouse; settings: bath application; CNO 1 μM; 30° C.
Procedure: The mice were decapitated under deep anesthesia using isoflurane (Pfizer). The brains were extracted and cooled in an ice-cold cutting solution containing the following (mM): 125 mM choline chloride, 25 mM NaHCO3, 10 mM D(+)-glucose, 7 mM MgCl2, 2.5 mM KCl, 1.25 mM NaH2PO4, and 0.5 mM CaCl2 bubbled with O2 (95%) and CO2 (5%). Horizontal brain slices (250 μm in thickness) including the hypothalamus were prepared by using a vibratome (VT1200S, Leica) and were maintained at room temperature for 1 hour in artificial CSF (ACSF) containing the following (mM): 125 mM NaCl, 26 mM NaHCO3, 10 mM D(+)-glucose, 2.5 mM KCl, 2 mM CaCl2), and 1 mM MgSO4 bubbled with O2 (95%) and CO2 (5%). The electrodes (5 to 8 MΩ) were filled with an internal solution containing the following (mM): 125 mM K-gluconate, 10 mM HEPES, 10 mM phosphocreatine, 0.05 mM tolbutamide, 4 mM NaCl, 4 mM ATP, 2 mM MgCl2, 0.4 mM GTP, and 0.2 mM EGTA, pH 7.3, adjusted with KOH). Firing of hM3Dq-mCherry-expressing neurons was recorded in current-clamp mode at a temperature of 30° C. CNO (1 μM) was bath-applied, and the effect was investigated. The membrane potential and data acquisition were controlled by using a combination of a MultiClamp 700B amplifier, a Digidata 1440A A/D converter, and Clampex 10.3 software (Molecular Devices). […]

[2] = test system: AVPe/MPA including Q-neurons; settings: AAV10-CaMKIIα-hM3Dq-mCherry injected into AVPe/MPA; cited from earlier work
[3] = test system: neurons in AVPe, MPA, and Pe; assay: Fos immunostaining after CNO IP in Q-hM3D mice; format: in vivo, mouse; settings: 90 minutes after CNO IP
Procedure: Each mouse was deeply anesthetized with isoflurane, transcardially perfused with 10% sucrose in water, and subsequently perfused with ice-cooled 4% paraformaldehyde (4% PFA) in a 0.1 M phosphate buffer having a pH of 7.4, and the brain was removed. The brain was left in 4% PFA overnight at 4° ° C., then fixed, incubated overnight at 4° C. in 30% sucrose in a 0.1 M phosphate buffered saline (PBS) having a pH of 7.4, immersed in a Tissuue-Tek O.C.T. compound (Sakura) in a cryomold, and frozen at −80° C. until sectioned. The brain was sliced coronally by using a cryostat (CM1860, Leica) every 50 μm into four equal series, collected in a 6-well plate filled with ice-cooled PBS, and washed three times with PBS at room temperature (RT). Unless otherwise specified, the following incubation step was carried out with gently shaking on an orbital shaker. Brain sections were incubated for 1 hour at room temperature in 1% Triton X-100 in PBS. […]
The primary antibodies used in the present study were rabbit anti-cFos (1:4000, ABE457, Millipore), goat anti-mCherry (1:15000, AB0040-200, SICGEN), rat anti-GFP (1:5000, 04404-84, NACALAI TESQUE), mouse anti-TH (1:1000, sc-25269, Santa Cruz Biotechnology), mouse anti-orexin A (1:200, sc-80263, Santa Cruz Biotechnology), and rabbit anti-MCH (1:2000, M8440, SIGMA). […] Brain regions were determined by using mouse brain maps from Paxinos and Franklin^36.

Q-hM3D mice [4] = settings: mouse, in vivo
From the text: In order to evaluate the thermoregulatory system under QIH and normal conditions, the heat loss and the heat production of the animals were described by a hierarchical multilayer model (FIGS. 3c to 3k, code folder QIH_GTRH). Three parameters of G, TR, and H under two metabolic conditions, that is, normal and QIH, were estimated from a metabolically stable state of the animals at various TAs. […] In brief, a linear model consisting of the controllable parameter TA and the observable parameters TB and VO2 was fitted to the experimental results for both TB and VO2 by using TA as a predictor having normally distributed noise. Next, G, TR, and H were estimated by using the posterior distributions of the slope and the intercept coefficient of each model. In this analysis, the prior probability density function of the standard deviation of noise was a standard half-normal distribution, and the other parameters used a positive region of a uniform distribution except for the intercept coefficient of TB, which used a uniform distribution due to negative values.
In order to evaluate this, feature analysis of the thermoregulatory system of mice during QIH was carried out. […] Q-hM3D mice were prepared, and TB and VO2 were recorded during QIH at various TAs (8, 12, 16, 20, 24, 28, and 32° C.) (FIG. 3a). […]

[5] = test system: Qrfp-iCre; Rosa26^dreaddm3 mice; assay: Thermographic surface body temperature and motor activity after CNO in Qrfp-iCre; Rosa26^dreaddm3 mice; format: in vivo, mouse
From the text: For thermographic analysis, the mice were placed in an experimental cage (25×15×10 cm) and monitored by using an infrared thermal imaging camera (InfReC R500 EX; NIPPON AVIONICS) placed 30 cm above the cage floor. In order to clearly detect the surface temperature, the dorsal hair was removed by using hair clippers one day before the start of the experiment. Thermograms of DREADD and optogenetic experiments were collected at 0.5 Hz and 1 Hz, respectively, and analyzed by using the InfReC Analyzer NS9500 Professional software (NIPPON AVIONICS). The highest temperature in one frame was used as TS of the animal (FIG. 1d).
The pyroglutamylated RFamide peptide (QRFP), a hypothalamic neuropeptide, was originally discovered through a bioinformatics approach aimed at the discovery of a new RFamide peptide^9,10. The Qrfp peptide was also identified and purified from the rat brain as an endogenous ligand for the orphan G-protein-coupled receptor hGPR103^11. The prepro-Qrfp mRNA is localized only in the hypothalamus and is distributed in the periventricular nucleus (Pe), the lateral hypothalamus (LHA), and the tuber cinereum (TC) 11. Orfp has previously been implicated in food intake, sympathetic regulation, and anxiety^11,12. The inventors prepared mice (Qrfp-iCre mice) having codon-improved Cre recombinase (iCre) knocked-in into the Qrfp gene. In order to obtain mice (Qrfp-iCre; Rosa26^dreaddm3 mice) in which hM3Dq-mCherry was expressed only in iCre-expressing neurons, the inventors crossbred […] with Rosa26^dreadm3 mice having an upstream floxed transcription arrest element inserted at the Rosa26 gene locus. […] The decrease in Ts started about 5 minutes after CNO administration and lasted for approximately 12 hours. After that, the mice spontaneously recovered from the hypothermic state without external rewarming.

Q-hM3D mice [6] = assay: Body temperature, oxygen consumption, heart rate and respiration after CNO IP in Q-hM3D mice; format: in vivo, mouse
[7] = centrally administered; cited from earlier work
wild-type mice = assay: Metabolic state induced by IP CHA in wild-type mice
Procedure: The adenosinea receptor agonist CHA (N6-cyclohexyladenosine, Sigma-Aldrich, C9901) was dissolved in physiological saline at a concentration of 250 μg/mL, and the resulting solution was intraperitoneally administered to each mouse at a dose of 2.5 mg/kg.
In addition, the metabolic state induced by systemic delivery of the adenosine A1AR agonist (6)N-cyclohexyladenosine (CHA), which is used to induce a hypothermic state, was also investigated^19.

[8] = surface body temperature, thermographic camera

Compound: C[N+]1([O-])CCN(C2=Nc3cc(Cl)ccc3Nc3ccccc32)CC1 [CNO, clozapine N-oxide]
- excitation of mCherry-positive neurons [1]: strongly excited
- induction of QIH in rats [2]: induced QIH with hypothermia and hypometabolism
- in vivo excitation of neurons (anti-Fos and anti-mCherry) [3]: numerous mCherry and Fos double-positive neurons
- difference between the medians of TR, normal vs QIH (Q-hM3D mice [4]): 8.41 °C
- reduction in the median of H in QIH from the normal state (Q-hM3D mice [4]): 95.3%
- hypothermia accompanying the CNO-induced immobile state ([5]; FIG. 1b): remarkable and sustained hypothermia
- start of severe and sustained immobile state after injection ([5]; intraperitoneal (IP) injection): about 30 minutes
- duration of decrease in Ts [5, 8]: approximately 12 hours
- start of decrease in Ts after administration [5, 8]: about 5 minutes
- induction of QIH (Q-hM3D mice [6]; CNO injection, before in situ hybridization): effectively induced QIH
- QIH after repeated injections in the same mice (Q-hM3D mice [6]; FIG. 1h): reproducible
- duration of very low TB state (below 30° C.) (Q-hM3D mice [6]; IP injection, FIG. 1d): ≥ 48 h
- duration of QIH with a TB of less than 30° C. (Q-hM3D mice [6]; TA=20° C., one dose 1 mg/kg): ≥ 48 h
- time for VO2 to fully return to normal (Q-hM3D mice [6]; TA=20° C., one dose 1 mg/kg): about 1 week
- hypothermia compared with Qrfp-iCre; Rosa26^dreaddm3 mice (Q-hM3D mice [6]; mouse, in vivo, ip): deeper, longer-lasting hypothermia
- O2 consumption rate (VO2) in the CNO-induced hypothermic state (Q-hM3D mice [6]; respiratory gas analysis, FIG. 1g): remarkable decrease
- action of CNO on TB with TeTxLC co-expression (Q-hM3D mice [6]; simultaneous injection of AAV2/9-hSyn-DIO-TeTxLC-eYFP and AAV10-EF1α-DIO-hM3Dq-mCherry): completely eliminated
- VO2 (Q-hM3D mice [6]; two hours after CNO injection, 3.60 before): 1.17 mL/g/h
- respiratory rate (Q-hM3D mice [6]; two hours after CNO injection, 333 before, tidal volume below detection limit): undetectable
- heart rate (Q-hM3D mice [6]; two hours after CNO injection, 758 two hours before, average of n=3): 215 beats/min

Compound: pyroglutamylated RFamide peptide (QDEGSEATGFLPAAGEKTSGPLGNLAEELNGYSRKKGGFSFRF; QRF-amide; UniProt P83859 91-133, looked up) [Qrfp, hypothalamic neuropeptide, endogenous ligand for the GPR103 receptor]
- effect on sympathetic nerve outflow, heart rate and blood pressure [7]: increases sympathetic nerve outflow and increases the heart rate and the blood pressure

Compound: OC[C@H]1O[C@@H](n2cnc3c(NC4CCCCC4)ncnc32)[C@H](O)[C@@H]1O [CHA, N6-cyclohexyladenosine]
- TB and VO2 when TA was set to 12° C. (wild-type mice; IP 2.5 mg/kg, CHA-induced hypothermia): further decreased
- reaction to low TA (increase in VO2, posture, shivering) (wild-type mice; IP 2.5 mg/kg, TA 12° C.): did not react to a low TA
- induction of hypothermic/hypometabolic state (wild-type mice; IP injection 2.5 mg/kg): effectively induced a hypothermic/hypometabolic state
